Data taken from EP0846119B1, “THIENOPYRIMIDINE DERIVATIVES, THEIR PRODUCTION AND USE AS ENDOTHELIN ANTAGONISTS” (Takeda Chemical Industries, Ltd., priority 1995, dated 1997).

Key:
[1] = target: T1, human ETB endothelin receptor (Homo sapiens, UniProt P24530); experiment: Binding Test to ETB receptor expressed in CHO cell (ET-1-stimulated [3H]arachidonic acid release); format: cell-based; settings: CHO cell expressing human ETB (ETB 12 cells), final concentration of ET-1 6.3x10^-10M, n=2
T1 construct: expressed in transfected cells; host or cells: CHO cells (clone ETB 12)
T1 sequence (P24530 27-442): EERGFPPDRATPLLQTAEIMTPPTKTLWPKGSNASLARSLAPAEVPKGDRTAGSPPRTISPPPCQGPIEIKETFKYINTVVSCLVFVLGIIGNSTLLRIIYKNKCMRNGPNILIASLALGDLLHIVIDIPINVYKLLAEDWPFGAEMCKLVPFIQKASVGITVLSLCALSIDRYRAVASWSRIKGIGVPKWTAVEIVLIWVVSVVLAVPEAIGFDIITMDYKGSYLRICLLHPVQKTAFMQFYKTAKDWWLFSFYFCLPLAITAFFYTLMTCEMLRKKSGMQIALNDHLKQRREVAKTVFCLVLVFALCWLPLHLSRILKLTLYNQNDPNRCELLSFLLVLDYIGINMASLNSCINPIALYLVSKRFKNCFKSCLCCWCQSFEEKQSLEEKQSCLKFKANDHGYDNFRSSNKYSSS
Method: Binding Test to ETB receptor expressed in CHO cell:
cells: CHO cell expressing human ETB endothelin receptor, i.e. ETB 12 cells medium: DMEM 10% FCS Gln, nonessential amino acids, penicillin, streptomycin
Cells were seeded in 12 wells of 24 well plates at a density of 2x10^5 cells/well (1 ml medium/well). On the next day, [^3H]arachidonic acid was added to each well to be 250 nCi(nanocurie)/ml. On the next day, the medium was sucked from the wells by the use of an aspirator to remove free arachidonic acid and floating cells, and then 0.5 ml of medium was added. This procedure was repeated agian. After allowing to stand for 30minutes in a CO2 incubator, the medium was exchanged rapidly.
The sample of compound obtained in Example 5 or compound 16 of Example 11 was stepwise diluted with a buffer solution for dilution, containing 3.15x10^-8M endothelin-1 (ET-1) {20 mM Tris, 5mM Mg(AcO)2, 2 mM EGTA, 0.03% NaN3, 0.1% BSA, 0.05% CHAPS}. 10 µl of the solution was added to each well (final concentration of ET-1: 6.3x10^-10M). […] After allowing to-stand for 30 minutes in the CO2 incubator, the medium was completely collected and the radio activity of [^3H]arachidonic acid released in the medium was measured by a liquid scintillation counter. IC50 values were calculated by Hill Plot from the concentration and relative reaction value of each sample.

[2] = system: coronary artery where ETA is expressed; experiment: Inhibition Test on coronary artery where ETA is expressed (ET-1-induced constriction of ring samples); settings: porcine coronary artery ring, pre-treatment 30 minutes, relative to vehicle group
Method: Inhibition Test on coronary artery where ETA is expressed:
3-mm ring samples for vehicle group and drug-treating group were prepared by removing fat and connective tissue from coronary artery enucleated from porcine heart and obtained from the adjacent portions thereof. The samples, hanging in Magnus tube filled with Krebs solution, were stabilized for 90 minutes under 2 g of static tension. After subjecting the samples to constriction for 10 minutes by potassium chloride (KCl) (60 mM) to obtain the maximum reaction, the samples were then washed and stabilized for 60 minutes. […]
The constriction efficiency (% KCl) of ET-1 was calculated as a relative value to KCl constriction of each sample which was regarded as 100%. Further, the inhibiting efficiency was calculated from the constriction efficiency of the drug-treating group calculated as a relative value to the constriction of the vehicle group which was regarded as 100%.

| SMILES | IC50 [1] [nM] | % inhibition (MEAN ± S.E.M.) (n=) artery (ET-1 3nM) ([2]; compound 1 µM) | % inhibition (MEAN ± S.E.M.) (n=) artery (ET-1 3nM) ([2]; compound 0.1 µM) |
| --- | --- | --- | --- |
| CCS(=O)(=O)NCc1c(-c2ccc(OCOC)cc2)sc2c1c(=O)n(CC(=O)O)c(=O)n2Cc1ccccc1SC [11(16), 2,4(1H,3H)-Dioxo-6-(4-methoxymethoxyphenyl)-1-(2-methylthiobenzyl)-5-(ethanesulfonamidomethyl)thieno[2,3-d]pyrimidine-3-acetic acid] | 130 | 33.1 ± 8.6 (4) % | – |
| COCOc1ccc(-c2sc3c(c2CNS(C)(=O)=O)c(=O)n(CC(=O)O)c(=O)n3Cc2ccccc2SC)cc1 [Example 5, 2,4(1H,3H)-dioxo-6-(4-methoxymethoxyphenyl)-1-(2-methylthiobenzyl)-5-(methanesulfonamidomethyl)thieno[2,3-d]pyrimidine-3-aretic acid] | 490 | 78.1 ± 11.9 (4) % | 7.6 ± 37.3 (3) % |
